Data as given in PMC6900558 (Acta Pharmaceutica Sinica. B, 2019).
Like-named read-outs stand apart in the source and are kept apart here.

Assays:
σ1R [1] = target: T1, σ1R (Mus musculus, UniProt O55242); assay: In vivo PET-CT imaging with [^11C]HCC0923 in mice brain; design: species or system mice (BALB/c); conditions: self-blocking, 12.5 mg/kg i.v. 5 min before tracer
Experimental logD = type: physicochemical; conditions: PBS (aqueous phase; partition solvent not stated), pH 7.4
guinea pig σ1 receptor [2] = target: T2, guinea pig σ1 receptor (Cavia porcellus, UniProt Q60492); assay: Ex vivo σ1 receptor binding assay; conditions: for Selectivity (σ2R/σ1R): ratio of σ2R Ki to σ1R Ki
T2 sequence (Q60492 whole entry): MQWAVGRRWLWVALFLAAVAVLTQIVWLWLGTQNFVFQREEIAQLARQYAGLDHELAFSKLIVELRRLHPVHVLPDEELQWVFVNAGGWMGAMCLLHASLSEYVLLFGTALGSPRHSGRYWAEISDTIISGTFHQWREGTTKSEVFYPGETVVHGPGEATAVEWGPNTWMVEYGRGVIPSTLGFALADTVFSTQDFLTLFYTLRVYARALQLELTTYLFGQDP

σ1R [3] = target: T1, σ1R; assay: In vivo PET-CT imaging with [^11C]HCC0929 in mice brain; design: species or system mice (BALB/c)
guinea pig σ2 receptor = conditions: read-out: σ2R Ki; cited from earlier work
guinea pig σ1 receptor [4] = target: T2, guinea pig σ1 receptor; conditions: read-out: σ1R Kd or Ki; Kd or Ki not specified; cited from earlier work

T1 sequence (O55242 whole entry): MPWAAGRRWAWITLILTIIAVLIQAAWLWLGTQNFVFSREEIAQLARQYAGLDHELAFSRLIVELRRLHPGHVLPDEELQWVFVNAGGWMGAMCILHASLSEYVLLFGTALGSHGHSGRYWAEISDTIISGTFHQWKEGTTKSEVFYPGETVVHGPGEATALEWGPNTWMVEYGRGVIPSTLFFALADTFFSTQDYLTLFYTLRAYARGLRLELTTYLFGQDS

reduction in [^11C]HCC0923 brain uptake (σ1R [1]) [%] | logD (Experimental logD) | Ki (guinea pig σ1 receptor [2]) [nM] | Selectivity (σ2R/σ1R) (guinea pig σ1 receptor [2]) | reduction in [^11C]HCC0929 mice brain uptake (σ1R [3]; self-blocking, 2.88 mg/kg i.v. 5 min before tracer) [%] | reduction of [^11C]HCC0929 binding in mice brain (σ1R [3]; pretreatment 2.99 mg/kg i.v., change between peak at ∼5 min and lowest at 60 min) [%] | Structure (SMILES) | Ki (guinea pig σ2 receptor) [nM] | Ki (guinea pig σ1 receptor [4]) [nM]
~54 | 0.89 ± 0.06 | 10.3 ± 1.1 | 111.3 | – | – | COc1ccc(-n2nc(OCCCN3CCCCC3)ccc2=O)cc1 [compound 13, 2-(4-Methoxyphenyl)-6-(3-(piperidin-1-yl)propoxy)pyridazin-3(2H)-one] | – | –
– | 1.73 ± 0.08 | 5.6 ± 0.7 | 272.8 | ~58 | – | CN1CCN(CCCOc2ccc(=O)n(-c3ccc(Cl)c(Cl)c3)n2)CC1 [compound 15, 2-(3,4-Dichlorophenyl)-6-(3-(4-methylpiperazin-1-yl)propoxy)pyridazin-3(2H)-one] | – | –
– | – | – | – | – | ~67 | CCCN1CCC=C(c2cc(-c3ccc(C)cc3)no2)C1 [PD 144418] | 1380 ± 179 | 4.3 ± 0.1
